# Experimental data reported in article PMC9029893 (International Journal of Molecular Sciences, 2022).
# How the values were obtained:
# Assay type in all cases: biochemical
# [1] = tested on: human plasma (platelet poor plasma); assay: Basic coagulation tests: PT, INR, APTT, TT; conditions: for TT: thrombin 3.0 UNIH/mL
# Experimental: The blood was collected into vacuum tubes stuffed with 3.2% buffered sodium citrate. Platelet poor plasma (PPP) was obtained by centrifugation at 3000× g for 10 min at room temperature using a Micro 22R centrifuge (Hettich Zentrifugen, Tuttlingen, Germany). The obtained PPP was stored in small aliquots for up to one month at –30° C. Before each experiment, PPP was restored at 37 °C for 15 min. Once thawed, the PPP was not frozen again nor used for retesting.
# The effects of biguanidines (1–5) on the basic coagulation parameters (PT, INR, APTT, and TT) were carried out using a CoagChrom-3003 coagulometer (Bio-Ksel, Grudziądz, Poland), according to the routine laboratory diagnostic procedure. The studies were performed in multiplicate (n = 4–7). The control samples containing distilled water and methanol (1:1) were also included.
# The results are presented as mean ± standard deviation (SD). The methods were validated, and coefficients of variability for all experiments were calculated (PT: CV = 10.25%, APTT: CV = 8.55%, TT: CV = 4.87%). The reference values for each test are as follows: PT: 9.7–14.6 s; APTT: 26.7–40.0 s; TT: 14.0–18.0 s for 3.0 UNIH/mL of thrombin.
# [2] = tested on: clot formation and fibrinolysis in human citrate plasma; assay: Clot formation and fibrinolysis test (CL-test)
# Experimental: The effects of the […] on overall hemostasis potential by means of clot formation and fibrinolysis test (CL-test) were further tested based on the continuous measurement of the changes in optical transmittance over time, as described by Kostka et al. and Sikora et al.. These experiments were conducted using 470 µL of three-fold diluted human citrate plasma, 10 µL of the tested compounds, and 10 µL t-PA (final concentration in a sample 220 ng/mL). The clot formation was triggered by thrombin (10 µL, final concentration 0.5 IU/mL). The clot formation and lysis curves were determined at a wavelength of 405 nm with a spectrophotometer (Cecil CE 2021; London, UK) with circulating thermostated water (37 °C) and a Model 300 Electronic Stirrer (Rank Brothers Ltd., Cambridge, UK). The experiments were conducted in multiplicate (n = 5–7), and the results are presented as mean ± SD.
# The received graphs were analyzed using dedicated software to determine the kinetic parameters of clot formation, stabilization, and fibrinolysis. The following parameters of clot formation were determined: Tt—thrombin time (s), Fmax—maximum clotting (%T), Tf—plasma clotting time (s), Fvo—initial plasma clotting velocity (%T/min), Sr—area under the clot formation curve (%Txmin). The parameters of the clot stabilization phase comprised Tc—clot stabilization time (s), Sc—area under the curve of stable clot formation (%Txmin). The parameters of fibrinolysis comprised Lmax—maximum lysis (%T), Tl—fibrinolysis time (s), Lvo—initial clot fibrinolysis velocity (%T/min), Sf—area under the fibrinolysis curve (%Txmin). Additionally, the overall potential of clot formation and fibrinolysis (CLAUC, (%Txmin)) and total time of the process of clot formation and fibrinolysis (T, (s)) were also estimated.
# factor X = target: T1, factor X (Homo sapiens, UniProt P00742); assay: Factor X activity
# T1 construct: 50 µL of four-fold diluted PPP, 50 μL of deficient plasma factor X, 10 μL of the examined compound; from tissue; host or cells: platelet-poor plasma (PPP), mixed with factor X-depleted plasma (Bio-Ksel)
# T1 sequence (P00742 41-488): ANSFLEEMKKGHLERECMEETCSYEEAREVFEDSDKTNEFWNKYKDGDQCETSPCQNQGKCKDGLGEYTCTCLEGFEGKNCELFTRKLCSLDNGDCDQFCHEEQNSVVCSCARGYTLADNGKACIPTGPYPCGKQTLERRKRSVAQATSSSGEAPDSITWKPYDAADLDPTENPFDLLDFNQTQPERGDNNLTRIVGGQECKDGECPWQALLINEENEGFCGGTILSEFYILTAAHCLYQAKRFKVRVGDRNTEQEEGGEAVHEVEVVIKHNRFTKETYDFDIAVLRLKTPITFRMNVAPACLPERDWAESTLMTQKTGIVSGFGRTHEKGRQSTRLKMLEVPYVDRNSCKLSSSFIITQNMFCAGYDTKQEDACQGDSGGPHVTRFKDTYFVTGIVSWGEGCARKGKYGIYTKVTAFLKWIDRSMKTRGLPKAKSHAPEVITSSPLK
# Experimental: The activity of FX was measured optically using deficient plasma factor X [75]. The content of each sample was as follows: 50 µL of four-fold diluted PPP, 50 μL of deficient plasma factor X, 10 μL of the examined compound, and 100 µL PT reagent. The control samples contained 10 μL of distilled water and methanol (1:1). The measurement of PT time was recorded using a CoagChrom-3003 coagulometer (Bio-Ksel, Grudziadz, Poland). The activity of factor X was counted using a calibration curve (R^2 = 0.999) performed on a calibrator diluted in the range 1:5–1:80 [76]. The variation in plasma coagulation time is proportional to the concentration and activity of factor X in the patient plasma treated with the tested compounds. The coefficient of variability for the method was calculated as CV = 1.80%. The reference values for factor X activity ranged from 77–131%.
smiles,measurement,setting,value
CN(C)C(=N)N=C(N)NS(=O)(=O)C1CCCCC1 [Compound 3],APTT,[1]; 0.006 mM,32.97 ± 5.06 s
same,INR,[1]; 0.006 mM,1.00 ± 0.11
same,PT,[1]; 0.006 mM,12.52 ± 1.42 s
same,TT,[1]; 0.006 mM,13.18 ± 1.97 s
same,APTT,[1]; 0.06 mM,34.50 ± 4.52 s
same,INR,[1]; 0.06 mM,1.04 ± 0.15
same,PT,[1]; 0.06 mM,13.02 ± 1.90 s
same,TT,[1]; 0.06 mM,13.14 ± 2.01 s
same,APTT,[1]; 0.3 mM,33.00 ± 5.70 s
same,INR,[1]; 0.3 mM,1.09 ± 0.11
same,PT,[1]; 0.3 mM,13.60 ± 1.39 s
same,TT,[1]; 0.3 mM,13.46 ± 1.97 s
same,APTT,[1]; 0.6 mM,33.17 ± 5.34 s
same,INR,[1]; 0.6 mM,1.09 ± 0.18
same,PT,[1]; 0.6 mM,13.66 ± 2.27 s
same,TT,[1]; 0.6 mM,13.50 ± 1.74 s
same,APTT,[1]; 1.5 mM,32.49 ± 7.50 s
same,INR,[1]; 1.5 mM,1.06 ± 0.18
same,PT,[1]; 1.5 mM,13.30 ± 2.30 s
same,TT,[1]; 1.5 mM,14.06 ± 1.60 s
same,Fmax—maximum clotting,[2]; 0.06 mM,65.40 ± 9.39 %T
same,Fvo—initial plasma clotting velocity,[2]; 0.06 mM,208.17 ± 44.80 %T/min
same,Lmax—maximum lysis,[2]; 0.06 mM,71.38 ± 8.36 %T
same,Lvo—initial clot fibrinolysis velocity,[2]; 0.06 mM,20.38 ± 5.24 %T/min
same,Sc—area under the curve of a stable clot formation,[2]; 0.06 mM,314.15 ± 49.14 %T x min
same,Sf—area under the clot formation curve,[2]; 0.06 mM,48.52 ± 10.81 %T x min
same,Sl (area under the fibrinolysis curve),[2]; 0.06 mM,156.16 ± 30.07 %T x min
same,S—overall potential of clot formation and fibrinolysis (CLAUC),[2]; 0.06 mM,521.91 ± 66.81 %T x min
same,Tc—clot stabilization time,[2]; 0.06 mM,279.50 ± 46.51 s
same,Tf—plasma clotting time,[2]; 0.06 mM,57.45 ± 8.71 s
same,Tl—fibrinolysis time,[2]; 0.06 mM,235.33 ± 48.33 s
same,Tt—thrombin time,[2]; 0.06 mM,16.68 ± 3.26 s
same,T—total time of the process of clot formation and fibrinolysis,[2]; 0.06 mM,588.97 ± 87.54 s
same,Fmax—maximum clotting,[2]; 0.3 mM,68.78 ± 4.04 %T
same,Fvo—initial plasma clotting velocity,[2]; 0.3 mM,214.17 ± 32.05 %T/min
same,Lmax—maximum lysis,[2]; 0.3 mM,70.15 ± 3.87 %T
same,Lvo—initial clot fibrinolysis velocity,[2]; 0.3 mM,22.88 ± 8.98 %T/min
same,Sc—area under the curve of a stable clot formation,[2]; 0.3 mM,335.21 ± 50.51 %T x min
same,Sf—area under the clot formation curve,[2]; 0.3 mM,44.41 ± 6.00 %T x min
same,Sl (area under the fibrinolysis curve),[2]; 0.3 mM,142.20 ± 37.46 %T x min
same,S—overall potential of clot formation and fibrinolysis (CLAUC),[2]; 0.3 mM,521.82 ± 88.83 %T x min
same,Tc—clot stabilization time,[2]; 0.3 mM,299.50 ± 38.60 s
same,Tf—plasma clotting time,[2]; 0.3 mM,55.13 ± 7.55 s
same,Tl—fibrinolysis time,[2]; 0.3 mM,229.17 ± 48.85 s
same,Tt—thrombin time,[2]; 0.3 mM,16.23 ± 4.22 s
same,T—total time of the process of clot formation and fibrinolysis,[2]; 0.3 mM,600.03 ± 91.80 s
same,Fmax—maximum clotting,[2]; 0.6 mM,66.60 ± 4.00 %T
same,Fvo—initial plasma clotting velocity,[2]; 0.6 mM,211.50 ± 22.76 %T/min
same,Lmax—maximum lysis,[2]; 0.6 mM,67.55 ± 4.50 %T
same,Lvo—initial clot fibrinolysis velocity,[2]; 0.6 mM,23.53 ± 6.67 %T/min
same,Sc—area under the curve of a stable clot formation,[2]; 0.6 mM,323.11 ± 42.53 %T x min
same,Sf—area under the clot formation curve,[2]; 0.6 mM,42.40 ± 3.94 %T x min
same,Sl (area under the fibrinolysis curve),[2]; 0.6 mM,137.48 ± 23.47 %T x min
same,S—overall potential of clot formation and fibrinolysis (CLAUC),[2]; 0.6 mM,502.99 ± 64.69 %T x min
same,Tc—clot stabilization time,[2]; 0.6 mM,299.50 ± 40.90 s
same,Tf—plasma clotting time,[2]; 0.6 mM,54.73 ± 5.88 s
same,Tl—fibrinolysis time,[2]; 0.6 mM,234.83 ± 42.86 s
same,Tt—thrombin time,[2]; 0.6 mM,17.17 ± 3.17 s
same,T—total time of the process of clot formation and fibrinolysis,[2]; 0.6 mM,606.23 ± 87.70 s
same,Fmax—maximum clotting,[2]; 1.5 mM,63.60 ± 5.36 %T
same,Fvo—initial plasma clotting velocity,[2]; 1.5 mM,199.50 ± 18.07 %T/min
same,Lmax—maximum lysis,[2]; 1.5 mM,63.92 ± 5.38 %T
same,Lvo—initial clot fibrinolysis velocity,[2]; 1.5 mM,23.50 ± 13.77 %T/min
same,Sc—area under the curve of a stable clot formation,[2]; 1.5 mM,368.60 ± 84.14 %T x min
same,Sf—area under the clot formation curve,[2]; 1.5 mM,47.68 ± 7.07 %T x min
same,Sl (area under the fibrinolysis curve),[2]; 1.5 mM,143.17 ± 38.79 %T x min
same,S—overall potential of clot formation and fibrinolysis (CLAUC),[2]; 1.5 mM,559.45 ± 127.25 %T x min
same,Tc—clot stabilization time,[2]; 1.5 mM,355.50 ± 66.77 s
same,Tf—plasma clotting time,[2]; 1.5 mM,62.35 ± 6.00 s
same,Tl—fibrinolysis time,[2]; 1.5 mM,253.17 ± 62.51 s
same,Tt—thrombin time,[2]; 1.5 mM,18.15 ± 4.30 s
same,T—total time of the process of clot formation and fibrinolysis,[2]; 1.5 mM,689.17 ± 134.48 s
same,Factor X activity,factor X; 0.3 mM,105.60 ± 2.30%
same,Factor X activity,factor X; 0.6 mM,103.40 ± 7.23%
same,Factor X activity,factor X; 1.5 mM,104.20 ± 8.14%
